Laboratory results published in patent US5728685A, “Methods of treating inflammation using cell adhesion inhibitors” (Glycomed Incorporated, priority 1995, dated 1998).

What was measured:
[1] = test system: E-SELECTIN (E Selectin-IgG chimera); experiment: ELISA: inhibition of E-selectin binding to 2,3 sLex glycolipid
Excerpt: (§1) E-SELECTIN transfected COS cells produced by the above method may be used to assay for glucuronyl glycolipid ligands. Similarly, COS cells may be transfected with cDNAs that encode L-SELECTIN and/or P-SELECTIN. The production and characterization of L-SELECTIN IgG chimera constructs have been previously described by Watson S. R. et al., (1990) J. Cell Biol. 110:2221-2229. This chimera contains two complement binding domains, consistent with its natural expression. See Watson S. R. et al., (1991) J. Cell Biol. 115:235-243. P-SELECTIN chimera was constructed in a similar manner as described by Walz, G., et al (1990) Science 250, 1132-1135, and Aruffo, A. et al. (1991) Cell, 67, 35-44, respectively. The chimeras may be expressed in a suitable host cell, for example, 293 cells and purified. Protein A affinity chromatography is the preferred method of purification. E-SELECTIN and P-SELECTIN may be constructed with truncated complement binding domains to standardize the size of the chimeras and to facilitate their secretion. A variation of the above assay is to genetically engineer cells to express high levels of L-SELECTIN, E-SELECTIN, or P-SELECTIN on their surface, and to use the cells in lieu of purified selectin. Radiolabeled COS cells have been used in this type of assay, and can be transfected with cDNA that encodes for L-SELECTIN, E-SELECTIN or P-SELECTIN. […] The number of adherent cells reflects the capacity of the ligand to bind to the selectin.
(§2) Compounds 13a, 13b, 26 and 31 were tested for their capacity to bind to E, L and P selectin. The ELISA assay used consists of evaporating 2,3 sLex glycolipid, at 25 picomoles per well, onto microtiter wells, and then washing the excess off with water. The wells are blocked with 5% BSA at room temperature for an hour and then washed with PBS containing 1 mM Ca. While the plate is being blocked, biotin labelled goat F(ab')2 IgG (Fc specific) and streptavidinalkaline phosphatase diluted 1:1500 in 1% BSA-PBS (1 mM Ca) are combined with either the E, L or P Selectin-IgG chimera (L91-10) at 200 ng/mL and incubated at 37° C. for 15 minutes to allow a complex to form. This provides a soluble "multivalent" receptor. Compounds 13a and 13b were added at final concentrations ranging from 1.5 to 5.0 mM to the soluble receptor and allowed to react at 37° C. for 45 minutes. The solutions were then placed in the microtiter wells that had been washed after being blocked, and the plates incubated at 37° C. for 45 minutes to allow the soluble receptor to bind to the known natural ligand, 2,3 sLex glycolipid. The positive control was the signal produced by soluble "multivalent" receptor reacted with only the ligand evaporated to the microtiter well. This was considered "100% binding." The signal produced by receptor previously reacted with inhibitor is divided by the signal produced by the positive control, multiplied by 100, to calculate % receptor bound in the presence of the inhibitor. The reciprocal of this is % inhibition.

[2] = test system: L-SELECTIN (L Selectin-IgG chimera); experiment: ELISA: inhibition of L-selectin binding to 2,3 sLex glycolipid
Excerpt: as §1
as §2, with “Compounds 13a and 13b were added at final concentrations ranging from 1.5 to 5.0 mM to the soluble receptor and allowed to react at 37° C. for 45 minutes.” left out

[3] = test system: P-SELECTIN (P Selectin-IgG chimera); experiment: ELISA: inhibition of P-selectin binding to 2,3 sLex glycolipid
Excerpt: as §1, §2

[4] = test system: neutrophil-dependent injury to the lung endothelium and alveolar epithelium; experiment: Acute Lung Injury Assay (acid aspiration injury); assay type: in vivo, New Zealand White rabbits; details: 10 mg/kg/hr IV; for Alveolar-arterial blood oxygen gradient: as compared to control animals
Excerpt: Experiments were done to determine the effectiveness of compounds 13b or 31 in their ability to reduce neutrophil-dependent injury to the lung endothelium and alveolar epithelium following acid aspiration injury.
Female New Zealand White rabbits (1 each/group, approx. 2 KG each) were anesthetized with halothane and ventilated with positive pressure ventilation supplemented with oxygen. Vascular catheters were placed in the carotid artery, into the internal jugular vein, and a tracheostomy was made for positive pressure ventilation. A low pH solution (HCl, pH 1.5) was installed in Ringer's lactate (osmolality=approximately 100) at a dose of 3 ml/kg into the trachea to stimulate a gastric aspiration induced lung injury. Compound 13b or 31 were injected (10 mg/kg/hr IV) 5 minutes prior to intratracheal instillation of the low pH solutions continued by hourly injections until the end of the experiment. Appropriate controls were used. An intravascular as well as an intra-alveolar radiolabelled protein tracer was injected to quantify lung endothelial and alveolar epithelial protein permeability. Arterial blood gases, systemic blood pressure and airways were monitored. At the end of 6 hours the lungs were removed and alveolar fluid was sampled from both lungs in order to measure the concentration of native protein as well as radiolabelled proteins in the airspaces to calculate lung vascular and lung epithelial permeability. Also, one lung was lavaged in order to count the neutrophils that are present in the airspaces of the lungs. Extravascular lung water measurements was done on the lung which was not lavaged. Histological samples were taken from selected portions of the lung.

P-SELECTIN = details: cited from earlier work
[5] = test system: adhesion of human neutrophils in the rabbit isolated heart; experiment: Reperfusion Injury Assay: complement-induced neutrophil adhesion in isolated perfused heart; design: species or system human neutrophils; New Zealand White rabbit heart
Excerpt: Experiments were done to determine the effectiveness of compound 13b in decreasing adhesion of human neutrophils in the rabbit isolated […]. Addition of the human plasma to the rabbit isolated […] results in activation of the complement components found within the plasma, which in turn promotes an increase in the neutrophil accumulation. This model is used to determine the effect of lactose derivatives on inhibiting complement-induced neutrophil adhesion.
Hearts from New Zealand White rabbits were excised, mounted on a modified Langendorff apparatus and perfused with Krebs-Heinseleit buffer. Cardiac functional parameters were monitored upon a Grass Model 79D polygraph machine. 4% normal human plasma (NHP) was added to the recirculating buffer. Ten minutes after the addition of the plasma, 13b (0.1 mg/ml) was added to the perfusate. After 15 minutes of perfusion with the plasma, 51-chromium labelled human neutrophils (1×10^5 /ml) were added to the perfusate and allowed to recirculate for an additional 15 minutes. At the end of this time the hearts were washed with fresh buffer to remove non-specifically bound neutrophils, dried and counted in a well type gamma-counter. A concentration response curve was generated using concentrations of 0.001, 0.01 and 0.1 mg/ml. Six hearts were used for each of these concentrations.
Table 4 lists the results, expressed as the percent inhibition of neutrophil accumulation.

L-Selectin = details: cited from earlier work
mammalian hepatocytes = details: Lee et al. 1984, read-out: IC50 for inhibition of labeled ASOR binding; cited from earlier work

Compound: C[C@@H]1O[C@@H](O[C@@H]2[C@@H](O)[C@H](OCC[Si](C)(C)C)O[C@H](CO)[C@H]2O[C@@H]2O[C@H](CO)[C@H](O)[C@H](OS(=O)(=O)O)[C@H]2O)[C@@H](O)[C@H](O)[C@@H]1O [Compound 13a, 2-(Trimethylsilyl) ethyl O-α-L-fucopyranosyl-(1→3)-O-[sodium-β-D-galactopyranosyl3-sulfate-(1→4)]-β-D-glucopyranoside]
- inhibition of binding of E selectin to 2,3 sLex glycolipid (in words) [1]: inhibit binding of E selectin to 2,3 sLex glycolipid
- % INHIBITION of E-selectin binding to sLeX ([1]; 1.25 mM): 30%
- % INHIBITION of E-selectin binding to sLeX ([1]; 2.5 mM): 34%
- % INHIBITION of E-selectin binding to sLeX ([1]; 5.0 mM): 48%
- inhibition of binding of L selectin to 2,3 sLex glycolipid (in words) [2]: inhibit binding of L selectin
- % INHIBITION of L-selectin binding to sLeX ([2]; 1.25 mM): 13%
- % INHIBITION of L-selectin binding to sLeX ([2]; 2.5 mM): 27%
- % INHIBITION of L-selectin binding to sLeX ([2]; 5.0 mM): 47%

Compound: CCCCCCCCO[C@@H]1O[C@H](CO)[C@@H](O[C@@H]2O[C@H](CO)[C@H](O)[C@H](OS(=O)(=O)O)[C@H]2O)[C@H](O[C@@H]2O[C@@H](C)[C@@H](O)[C@@H](O)[C@@H]2O)[C@H]1O [Compound 26]
- inhibition of binding of E selectin to 2,3 sLex glycolipid (in words) [1]: inhibit binding of E selectin to 2,3 sLex glycolipid
- % INHIBITION of E-selectin binding to sLeX ([1]; 0.5 mM): 0%
- % INHIBITION of E-selectin binding to sLeX ([1]; 1.0 mM): 30%
- % INHIBITION of E-selectin binding to sLeX ([1]; 2.0 mM): 50%
- % INHIBITION of E-selectin binding to sLeX ([1]; 4.0 mM): 70%
- % INHIBITION of L-selectin binding to sLeX ([2]; 0.5 mM): 0%
- % INHIBITION of L-selectin binding to sLeX ([2]; 1.0 mM): 30%
- % INHIBITION of L-selectin binding to sLeX ([2]; 2.0 mM): 30%
- % INHIBITION of L-selectin binding to sLeX ([2]; 4.0 mM): 30%
- % INHIBITION of P-selectin binding to sLeX ([3]; 0.5 mM): 0%
- % INHIBITION of P-selectin binding to sLeX ([3]; 1.0 mM): 20%
- % INHIBITION of P-selectin binding to sLeX ([3]; 2.0 mM): 40%
- % INHIBITION of P-selectin binding to sLeX ([3]; 4.0 mM): 45%
- inhibition of P selectin binding to 2,3 sLex glycolipid (in words) ([3]; as compared to L-selectin): better inhibitor of P selectin (as compared to L-selectin)

Compound: CCCCCCCCO[C@@H]1O[C@H](CO)[C@@H](O[C@@H]2O[C@H](CO)[C@H](O)[C@H](OS(=O)(=O)O)[C@H]2O)[C@H](O)[C@H]1O [Compound 31, Octyl 4-O-(sodium β-D-galactopyranosyl 3-sulfate)-β-glucopyranoside]
- inhibition of binding of E selectin to 2,3 sLex glycolipid (in words) [1]: inactive
- % INHIBITION of E-selectin binding to sLeX ([1]; 0.5 mM): 0%
- % INHIBITION of E-selectin binding to sLeX ([1]; 1.0 mM): 0%
- % INHIBITION of E-selectin binding to sLeX ([1]; 2.0 mM): 0%
- % INHIBITION of E-selectin binding to sLeX ([1]; 4.0 mM): 0%
- inhibition of binding of L selectin to 2,3 sLex glycolipid (in words) [2]: inactive
- % INHIBITION of L-selectin binding to sLeX ([2]; 0.5 mM): 0%
- % INHIBITION of L-selectin binding to sLeX ([2]; 1.0 mM): 0%
- % INHIBITION of L-selectin binding to sLeX ([2]; 2.0 mM): 0%
- % INHIBITION of L-selectin binding to sLeX ([2]; 4.0 mM): 0%
- Alveolar-arterial blood oxygen gradient [4]: decrease
- neutrophil-dependent injury to the lung endothelium and alveolar epithelium ([4]; following acid aspiration injury): effectively reduced neutrophil-dependent injury

Compound: sulfatides
- binding to P-Selectin (P-SELECTIN): bind

Compound: C[C@@H]1O[C@@H](O[C@H]2[C@H](O[C@@H]3O[C@H](CO)[C@H](O)[C@H](OS(=O)(=O)O)[C@H]3O)[C@@H](CO)OC(O)[C@@H]2O)[C@@H](O)[C@H](O)[C@@H]1O (stereo partly drawn) [Compound 13b, O-α-L-fucopyranoayl-(1→3)-O-[sodium β-D-galactopyranosyl 3-sulfate-(1→4)]-D-glucopyranose]
- inhibition of binding of E selectin to 2,3 sLex glycolipid (in words) [1]: inhibit binding of E selectin to 2,3 sLex glycolipid
- % INHIBITION of E-selectin binding to sLeX ([1]; 1.25 mM): 48.5%
- % INHIBITION of E-selectin binding to sLeX ([1]; 2.5 mM): 45.4%
- % INHIBITION of E-selectin binding to sLeX ([1]; 5.0 mM): 82.5%
- inhibition of binding of L selectin to 2,3 sLex glycolipid (in words) [2]: inhibit binding of L selectin
- % INHIBITION of L-selectin binding to sLeX ([2]; 1.25 mM): 90%
- % INHIBITION of L-selectin binding to sLeX ([2]; 2.0 mM): 100%
- % INHIBITION of L-selectin binding to sLeX ([2]; 2.5 mM): 100%
- Alveolar-arterial blood oxygen gradient [4]: decrease
- degree of inhibition of neutrophil adhesion (in words) ([5]; 0.1 mg/ml): most significant degree of inhibition
- inhibition of neutrophil adhesion (in words) ([5]; 0.001, 0.01 and 0.1 mg/ml): inhibited neutrophil adhesion in a concentration-dependent manner
- inhibition at 100 µg/mL ([5]; Neutrophil, Table 4, 13b (0.1 mg/ml) added to the perfusate, read-out: % Neutrophil Inhibition (percent inhibition of neutrophil accumulation)): 35%

Compound: CC(=O)NC1C(O)CC(OC2C(O)C(CO)OC(OC3C(CO)OC(O)C(NC(C)=O)C3OC3OC(C)C(O)C(O)C3O)C2O)(C(=O)O)OC1C(O)C(O)CO (stereo not drawn) [sialyl Lewis X, NeuNAc α2-3-Gal-β1-4(Fucα1-3)-GlcNAc]
- binding to L-Selectin (L-Selectin): binds

Compound: OC[C@H]1O[C@@H](O[C@H]2[C@H](O)[C@@H](O)C(O)O[C@@H]2CO)[C@H](O)[C@@H](O)[C@H]1O (stereo partly shown) [single valent lactose, lactose]
- IC50 (mammalian hepatocytes): 500 µM
